{"source": "paper PMC2360155", "about": "“Novel retinoic acid metabolism blocking agents have potent inhibitory activities on human breast cancer cells and tumour growth” (British Journal of Cancer, 2007)", "key": {"AP1 activity": {"system": "AP1 activity", "assay": "Anti-AP1 assay (AP-1 CAT reporter, CV-1 cells cotransfected with RAR subtypes)", "type": "cell-based", "settings": "10^−6 M; each of the three RAR subtypes cotransfected", "procedure": "The ability of each RAMBA to inhibit AP1 activity was determined using anti-AP1 assays as we have described previously ([Soprano et al, 2000]). Briefly, CV-1 cells were cotransfected with 1.5 μg RAR subtype (RARα, RARβ and RARγ) expression vector construct in pSG5, 1.5 μg AP-1 CAT reporter DNA and 0.5 μg pCMV-β-gal DNA. […] Twenty-four hours later, the cells were harvested and CAT and β-gal activities were assayed. The percentage of AP-1 activity was calculated using the ethanol carrier control sample as 100%."}, "[1]": {"system": "MCF-7Ca tumour xenografts", "assay": "In vivo antitumour study, MCF-7Ca tumour xenografts", "design": "species or system ovariectomised female athymic nude mice", "settings": "for Prevention of formation of MCF-7Ca tumours (in words): 20 mg kg^−1 day^−1 from the day after inoculation", "procedure": "The third in vivo antitumour experiment was conducted with MCF-7Ca tumours. MCF-7Ca were provided by Dr S Chen (City of Hope, Duarte, CA, USA). The tumour xenografts were grown in mice as described previously ([Yue et al, 1994]). Subconfluent cells were scraped into Delbecco's phosphate-buffered saline, collected by centrifugation and resuspended in Matrigel (10 mg ml^−1) at 2.5 × 10^7 cells ml^−1. Each mouse received s.c. inoculations in two sites per flank with 100 μl of cell suspension. Mice in the tumour formation prevention group (n=5) were than injected daily with androstenedione (100 μg day^−1) plus VN/14-1 (20 mg kg^−1 day^−1) in the vehicle for the duration of the experiment. The rest of the mice were injected daily with 100 μg day^−1 of androstenedione. Measurements and treatments began when the tumours reached approximately 300 mm^3, about 6 weeks after cell inoculation. Mice were assigned to groups for treatment so that there was no statistically significant difference in tumour volumes among the groups at the beginning of the treatment. Tumours were measured and volumes calculated as described above. Mice were than injected s.c. daily with the indicated agents: 100 μg per mouse per day (5 × weekly) plus 10 μg per mouse per day (5 × weekly) of letrozole or 200 μg per mouse per day (5 × weekly) of anastrozole and 20 mg kg^−1 day^−1 (5 × weekly) of VN/14-1. The doses of letrozole, anastrozole, androstendione and VN/14-1 used are as determined previously ([Long et al, 2002], [2004]; [Patel et al, 2004]). The mice were treated for the indicated times, after which they were killed by decapitation and blood collected. Tumours and uteri were excised, cleaned, weighed and stored at −80°C for additional analyses.\nFigure 10 Effects of VN/14-1 on the formation of MCF-7Ca tumours and effects of VN/14-1, anastrozole and letrozole on the growth of MCF-7Ca xenografts in ovariectomised female athymic nude mice. Mice were inoculated with MCF-7Ca cells as described in Materials and Methods. Beginning on the following day, androstendione (100 μg per mouse per day) was supplemented by s.c. injection for the duration of the experiment. For the tumour formation prevention group (n=5), VN/14-1 (20 mg kg^−1 day^−1) treatment began from the day after inoculation. For the other groups (VN/14-1, anastrazole and letrozole), treatment began after the tumour had reached approximately 300 mm^3 following procedures described in Materials and Methods."}}, "note": "“Also recorded” adds a separate entry of the source.", "data": [{"smiles": "CC1=C(/C=C/C(C)=C/C=C/C(C)=C/C(=O)O)C(C)(C)CCC1n1ccnc1", "note": "(centres unmarked) [VN/14-1]", "values": [{"measurement": "Reduction of AP1-dependent transcription activity", "setting": "AP1 activity", "result": "20–40%"}, {"measurement": "Prevention of formation of MCF-7Ca tumours (in words)", "setting": "[1]", "result": "very effective in preventing the formation of MCF-7Ca tumours"}, {"measurement": "Prevention of formation of MCF-7Ca tumours (in words)", "setting": "[1]; listed as VN14-1", "result": "efficacious in preventing the formation of MCF-7Ca tumours"}, {"measurement": "Inhibition of growth of established MCF-7Ca tumours (in words)", "setting": "[1]; 20 mg kg^−1 day^−1 s.c. (5 × weekly), androstenedione supplemented", "result": "as effective as the clinically used aromatase inhibitors, anastrozole and letrozole; also recorded: as effective as either anastrozole or letrozole"}, {"measurement": "Uterine wet weight", "setting": "[1]; VN/14-1 treatment, data not shown", "result": "significant reduction in uterine wet weight"}]}]}
